Here are results for 73 compounds from patent publication US20240024266A1, “Therapeutic Agent or Prophylactic Agent for COVID-19” (priority 2020, published 2024).

The test system of one assay is SARS-CoV-2. Nature of the assay: Confirmation test of suppressing effect against SARS-CoV-2 proliferation (nucleocapsid Western blotting, VeroE6/TMPRSS2 cells). In kind it is cell-based. Particulars: 20 μM Pin1 inhibitor, VeroE6/TMPRSS2 cells, MOI 10, cell lysate 8 hours after infection, nucleocapsid band area vs no inhibitor.
With `O=C(Nc1ccc(OCc2ccc3ccccc3c2)cc1C(=O)O)c1ccc2ccccc2c1` [H-371], the “Inhibition Rate” value came to 99%.
`O=C(Nc1ccc(OCc2ccc3ccccc3c2)cc1C(=O)O)c1ccc2ccccc2c1` [H-487]: the “Inhibition Rate” value was 63%.

Staying with this assay, now noted: Severe acute respiratory syndrome coronavirus 2, VeroE6/TMPRSS2, 8 h, 20 μM Pin1 inhibitor, VeroE6/TMPRSS2 cells, MOI 10, cell lysate 8 hours after infection, nucleocapsid band area vs no inhibitor; read-out: Inhibition Rate.
On to `O=C(O[C@H](Cc1ccc2ccccc2c1)C(=O)O)c1ccc2ccccc2c1` [H-30], for which the inhibition at 20 µM turned out to be 99%.
The same measure, in the same setting: with `COc1ccc(-c2cc(C(=O)O[C@H](Cc3ccc4ccccc4c3)C(=O)O)c(C)o2)cc1` [H-32] the figure was 86%; with `O=C(O[C@H](Cc1ccc2ccccc2c1)C(=O)O)c1ccc(-c2ccccc2)cc1` [H-33], 100%; with `O=C(Nc1ccc(OCc2ccccc2)cc1C(=O)O)OCc1ccccc1` [H-78], 96%.
`O=C(N[C@H](Cc1c[nH]c2ccccc12)C(=O)O)OCC1c2ccccc2-c2ccccc21` [H-95]: the inhibition at 20 µM turned out to be 95%.
Still for that read-out and setting: the figure for `O=C(CC1c2ccccc2-c2ccccc21)N[C@H](Cc1ccc2ccccc2c1)C(=O)O` [H-103] is 100%; for `O=C(N[C@H](Cc1ccc2ccccc2c1)C(=O)OCc1ccccc1)C1c2ccccc2-c2ccccc21` [H-105] it is 100%.
The same measure, in the same setting: with `O=C(CC1c2ccccc2-c2ccccc21)O[C@H](Cc1ccc2ccccc2c1)C(=O)O` [H-106] the figure was 100%; with `O=C(O[C@H](Cc1ccc2ccccc2c1)C(=O)O)c1ccc(Oc2ccccc2)cc1` [H-123], 99%; with `O=C(O[C@H](Cc1ccc2ccccc2c1)C(=O)O)c1cccc(Oc2ccccc2)c1` [H-130], 100%.
As to `O=C(O[C@H](Cc1ccc2ccccc2c1)C(=O)O)c1ccccc1Oc1ccccc1` [H-132], the inhibition at 20 µM was found to be 99%.
The same measure, in the same setting: with `O=C(O[C@H](Cc1ccc2ccccc2c1)C(=O)O)C(c1ccccc1)c1ccccc1` [H-134] the figure was 98%; with `O=C(Cc1ccc2ccccc2c1)O[C@H](Cc1ccc2ccccc2c1)C(=O)O` [H-149], 99%.
For `O=C(Cc1cccc2ccccc12)O[C@H](Cc1ccc2ccccc2c1)C(=O)O` [H-151], the inhibition at 20 µM worked out at 98%.
As for `O=C(O)[C@@H](Cc1ccc2ccccc2c1)OC(=O)N1c2ccccc2Oc2ccccc21` [H-157], the inhibition at 20 µM stood at 100%.
On the same count and under the same terms, the figure for `O=C(O)[C@@H](Cc1ccc2ccccc2c1)NC(=O)N1c2ccccc2Oc2ccccc21` [H-162] is 99%.
Turning to `O=C(O)[C@@H](Cc1ccc2ccccc2c1)OC(=O)n1c2ccccc2c2ccccc21` [H-175], the inhibition at 20 µM stood at 100%.
Turning to `O=C(COc1ccc2ccccc2c1)O[C@H](Cc1ccc2ccccc2c1)C(=O)O` [H-177], the inhibition at 20 µM worked out at 99%.
On to `O=C(COc1cccc2ccccc12)O[C@H](Cc1ccc2ccccc2c1)C(=O)O` [H-179], for which the inhibition at 20 µM stood at 97%.
Same read-out and setting: the figure for `O=C(O)[C@@H](Cc1ccc2ccccc2c1)OCc1ccc2ccccc2c1` [H-181] is 99%; for `COc1cc(OC)cc(C(=O)O[C@H](Cc2ccc3ccccc3c2)C(=O)O)c1` [H-198] it is 67%; for `O=C(O[C@H](Cc1ccc2ccccc2c1)C(=O)O)c1cc(Cl)cc(Cl)c1` [H-200] it is 98%.
In the case of `Cc1cc(C)cc(C(=O)O[C@H](Cc2ccc3ccccc3c2)C(=O)O)c1` [H-210], the inhibition at 20 µM came out at 99%.
The same measure, in the same setting: the figure for `CC(C)(C)OC(=O)N[C@@H](Cc1ccccc1)C(=O)O[C@H](Cc1ccc2ccccc2c1)C(=O)O` [H-248] is 88%; for `COc1ccc2c(c1)C(C(=O)O[C@H](Cc1ccc3ccccc3c1)C(=O)O)c1ccccc1-2` (stereo partly shown) [H-254] it is 94%.
Same read-out and setting: with `O=C(O[C@H](Cc1ccc2ccccc2c1)C(=O)O)C1c2ccccc2-c2ccc(F)cc21` (stereo partly shown) [H-262] the figure was 94%; with `O=C(O[C@H](Cc1ccc2ccccc2c1)C(=O)O)C1c2ccccc2-c2ccc(Cl)cc21` (stereo partly shown) [H-263], 54%.
Still for that read-out and setting: with `O=C(O[C@H](Cc1ccc2ccccc2c1)C(=O)O)c1ccc(Cl)c(Cl)c1` [H-269] the figure was 98%.
Turning to `O=C(O)[C@@H](Cc1ccc(OCc2ccccc2)cc1)NC(=O)N1c2ccccc2Oc2ccccc21` [H-336], the inhibition at 20 µM amounted to 98%.
The same measure, in the same setting: with `O=C(O)[C@@H](Cc1ccc(OCc2ccccc2)cc1)NC(=O)n1c2ccccc2c2ccccc21` [H-337] the figure was 100%; with `O=C(O)c1cc(OCc2ccccc2)ccc1NS(=O)(=O)c1ccc2ccccc2c1` [H-338], 99%.
The same measure, in the same setting: the figure for `O=C(Nc1ccc(OCc2ccccc2)cc1C(=O)O)c1ccc2ccccc2n1` [H-339] is 76%; for `O=C(O)[C@H](NC(=O)n1c2ccccc2c2ccccc21)c1ccccc1` [H-348] it is 81%; for `O=C(COc1ccc2ccccc2c1)Nc1ccc(OCc2ccccc2)cc1C(=O)O` [H-362] it is 99%.
The same measure, in the same setting: with `O=C(Nc1ccc(OCc2ccccc2)cc1C(=O)O)c1cccc(Oc2ccccc2)c1` [H-363] the figure was 99%; with `O=C(O)c1cc(OCc2ccccc2)ccc1NC(=O)c1cccc2ccccc12` [H-370], 98%.
`COC(=O)[C@@H](Cc1ccc2ccccc2c1)NC(=O)n1c2ccccc2c2ccccc21` [H-393]: the inhibition at 20 µM stood at 80%.
On the same count and under the same terms, with `O=C(Nc1ccc(OCc2ccccc2)cc1C(=O)O)c1ccc2ccccc2c1` [H-429] the figure was 99%; with `O=C(O[C@H](Cc1cccc2ccccc12)C(=O)O)c1ccc2ccccc2c1` [H-438], 99%; with `O=C(O)c1cc(OCc2ccc3ccccc3c2)c(C(=O)O)cc1OCc1ccc2ccccc2c1` [H-444], 55%.
Still for that read-out and setting: the figure for `O=C(Nc1ccc(OCc2ccc3ccccc3c2)c(C(=O)O)c1)c1ccc2ccccc2c1` [H-448] is 100%; for `O=C(O[C@H](Cc1ccc2ccccc2c1)C(=O)O)c1cccc2ccccc12` [H-452] it is 52%.
As for `O=C(O)[C@@H](Cc1ccc2ccccc2c1)OCc1ccccc1Oc1ccccc1` [H-464], the inhibition at 20 µM was 100%.
On the same count and under the same terms, with `O=C(O)c1cc(OCc2ccc3ccccc3c2)ccc1OCc1ccc2ccccc2c1` [H-488] the figure was 100%; with `O=C(O)c1ccc(OCc2ccc3ccccc3c2)cc1OCc1ccc2ccccc2c1` [H-489], 99%; with `O=C(O)c1cc(OCc2ccc3ccccc3c2)cc(OCc2ccc3ccccc3c2)c1` [H-491], 91%.
On the same count and under the same terms, the figure for `O=C(O)CCC(Cc1ccc2ccccc2c1)OC(=O)c1ccc2ccccc2c1` (stereo not shown) [H-507] is 99%; for `O=C(O)[C@@H](Cc1cccc2ccccc12)NC(=O)n1c2ccccc2c2ccccc21` [H-509] it is 98%.
Still for that read-out and setting: with `COc1ccc2cc(CC(OC(=O)c3ccc4ccccc4c3)C(=O)O)ccc2c1` (stereo not shown) [H-512] the figure was 90%.
As for `O=C(O)CC(Cc1ccc2ccccc2c1)OC(=O)c1ccc2ccccc2c1` (stereo not shown) [H-514], the inhibition at 20 µM turned out to be 99%.
On the same count and under the same terms, the figure for `O=C(Cn1c2ccccc2c2ccccc21)N[C@H](Cc1ccc2ccccc2c1)C(=O)O` [H-536] is 75%; for `O=C(O)c1cc(NC(=O)n2c3ccccc3c3ccccc32)cc(NC(=O)n2c3ccccc3c3ccccc32)c1` [H-596] it is 99%; for `O=C(O[C@H](Cc1ccc2ccccc2c1)C(=O)O)C1c2ccccc2-c2ccccc21` [H-614] it is 96%.
Same read-out and setting: with `O=C(N[C@@H](CCCN1C(=O)c2ccccc2C1=O)C(=O)O)C1c2ccccc2-c2ccccc21` [H-619] the figure was 94%; with `COC(=O)c1cc(NC(=O)c2ccc3ccccc3c2)c[n+](Cc2ccc3ccccc3c2)c1` [H-626], 88%; with `O=C(C/C(=C\c1ccc2ccccc2c1)C(=O)O)NC1c2ccccc2-c2ccccc21` [H-644], 95%.
Same read-out and setting: the figure for `COC(=O)/C(=C/c1ccc2c(c1)OCO2)CC(=O)Nc1cccc2ccccc12` [H-669] is 64%; for `O=C(CC(Cc1ccc2c(c1)OCO2)C(=O)O)Nc1cccc2ccccc12` (stereo not shown) [H-674] it is 50%; for `CC(C)(C)OC(=O)Nc1cc(NC(=O)n2c3ccccc3c3ccccc32)cc(C(=O)O)c1` [H-678] it is 87%.
Regarding `COC(=O)c1cc(NC(=O)c2cccnc2)cc(NC(=O)n2c3ccccc3c3ccccc32)c1` [H-680], the inhibition at 20 µM came to 53%.
Consider `COC(=O)c1cc(NC(=O)c2ccc3ccccc3n2)cc(NC(=O)n2c3ccccc3c3ccccc32)c1` [H-684], for which the inhibition at 20 µM turned out to be 66%.
Same read-out and setting: the figure for `COC(=O)c1cc(NC(=O)c2cnc3ccccc3n2)cc(NC(=O)n2c3ccccc3c3ccccc32)c1` [H-685] is 58%; for `O=C(O)c1cc(NC(=O)c2cnc3ccccc3n2)cc(NC(=O)n2c3ccccc3c3ccccc32)c1` [H-691] it is 52%; for `O=C(O)c1cc(NC(=O)C2COc3ccccc3O2)cc(NC(=O)n2c3ccccc3c3ccccc32)c1` (stereo not shown) [H-693] it is 77%.
On the same count and under the same terms, with `COC(=O)c1cc(NC(C)=O)cc(NC(=O)n2c3ccccc3c3ccccc32)c1` [H-696-2] the figure was 98%.
Still for that read-out and setting: with `COC(=O)[C@H](CCCNC(=O)c1cccnc1)NC(=O)n1c2ccccc2c2ccccc21` [H-707] the figure was 55%; with `O=C(NCCC[C@H](NC(=O)n1c2ccccc2c2ccccc21)C(=O)O)c1cccnc1` [H-708], 62%.
As to `O=C(NCCC[C@H](NC(=O)C1c2ccccc2-c2ccccc21)C(=O)O)c1cccnc1` [H-715], the inhibition at 20 µM worked out at 63%.
On the same count and under the same terms, the figure for `O=C(NCCC[C@H](NC(=O)n1c2ccccc2c2ccccc21)C(=O)O)c1ccc2ccccc2c1` [H-717] is 87%; for `COC(=O)c1cc(N)cc(NC(=O)N(c2ccccc2)c2ccccc2)c1` [H-725-2] it is 81%.

The assay is the same for the next values; noted with them: Severe acute respiratory syndrome coronavirus 2, VeroE6/TMPRSS2, 8 h, read-out: Inhibition Rate.
For `COP(=O)(OC)OCC(COc1cccc2ccccc12)OCc1ccc2ccccc2c1` (stereo not shown) [H-546], the inhibition at 20 µM was found to be 83%.
